Where two headings read alike, the source gives them in different places.
Legend:
[1] = test system: patients with relapsed multiple myeloma; test: Safety: adverse events (NCI CTCAE v4.03), discontinuations, deaths; assay type: in vivo, human; conditions: for treatment discontinuation due to disease progression: as of data cutoff
Procedure: (§1) Patients received IV carfilzomib (as a 30-min infusion) in 28-day cycles (Fig. 1). All received carfilzomib 20 mg/m^2 on days 1 and 2 of cycle 1 and escalated to 27 mg/m^2 on day 8, 9, 15, and 16 of cycle 1. If tolerated, carfilzomib dose was increased to 56 mg/m^2 starting on day 1 of cycle 2 and continued on the same schedule (day 1, 2, 8, 9, 15, and 16 of each cycle). Oral or IV dexamethasone 8 mg/day was given on the same days as carfilzomib during cycles 1 and 2 but was optional in cycles 3 and beyond. IV hydration was given immediately prior to and following carfilzomib dosing during cycle 1 and at the investigator’s discretion in cycle 2 and higher; hydration consisted of 250 to 500 mL IV normal saline or other appropriate IV fluid.
(§2) Blood samples were collected for PK assessments for carfilzomib and its major metabolites (metabolites PR-389/M14, PR-413/M15, and PR-519/M16) (Fig. 1). Samples were collected at the following timepoints on cycle 1 day 16 (27 mg/m^2 dose) and cycle 2 day 1 (56 mg/m^2 dose) or on subsequent infusion days when the intended dose levels were administered: before infusion; 15 min after start of infusion; within 2 min before the end of infusion; and at 5, 15, and 30 min (±2 min for all timepoints ≤30 min), and 1, 2, and 4 h (±5 min for all timepoints >30 min) after the end of the infusion. Safety was assessed throughout the study and included the monitoring of AEs, clinical laboratory evaluations, electrocardiograms, and vital signs. Each evaluable patient’s response to treatment or progression over the course of the study was evaluated by the investigator according to the International Myeloma Working Group, International Uniform Response Criteria for Multiple Myeloma and European Group for Blood and Marrow Transplantation at day 1 of each cycle.
(§3) Safety was assessed for patients who received ≥1 dose of carfilzomib. AEs were graded using the National Cancer Institute Common Terminology Criteria for Adverse Events version 4.03 and mapped to preferred term and system organ class using the Medical Dictionary for Regulatory Activities (MedDRA). ORR defined as the proportion of patients for whom the best overall response was stringent complete response, complete response, very good PR, or PR, along with the associated 95% exact binomial CI (Clopper–Pearson method) was determined. CBR, defined as the proportion of patients with the best overall response of MR or better, was likewise determined along with the 95% exact binomial CI.

[2] = test system: relapsed multiple myeloma; conditions: carfilzomib 56 mg/m^2 infused for 30 min with or without dexamethasone, cited from earlier work
Procedure: The 50% ORR in the overall population was similar to those previously reported in trials of carfilzomib 56 mg/m^2 infused for 30 min with or without dexamethasone for relapsed multiple myeloma (50% in a phase I trial and 55% in a phase II trial). Together, the results of this study support current recommendations for carfilzomib that no starting dose adjustment is warranted for patients with baseline renal impairment including those with ESRD [8, 20].

[3] = test system: patients with relapsed multiple myeloma; test: Best overall response as determined by investigator (IMWG / EBMT criteria), DOR and PFS; assay type: in vivo, human; conditions: for Best overall response: Minimal response / Best overall response: Complete response / Best overall response: Not evaluable / Best overall response: Partial response / Best overall response: Progressive disease / Best overall response: Stable disease / Best overall response: Stringent complete response / Best overall response: Very good partial response / Clinical benefit rate (95% CI), minimal response or better / Overall response rate (95% CI), partial response or better: response-evaluable, carfilzomib 20/27/56 mg/m^2 IV; for Best overall response: Minimal response: EBMT criteria
Procedure: (§4) This was a phase I, multicenter (13 sites in US, Canada, and Australia), open-label, nonrandomized, comparative PK study of carfilzomib in patients with multiple myeloma and normal renal function or ESRD on hemodialysis (NCT01949532). The primary objective was to assess the influence of ESRD on AUC, from time 0 to the last concentration measured (AUC0−last) and from time 0 extrapolated to infinity (AUC0−inf) of carfilzomib 56 mg/m^2 at cycle 2 day 1 in patients with relapsed multiple myeloma. Secondary objectives were to compare between patient cohorts additional PK parameters of carfilzomib at cycle 2 day 1, including C max, time to maximum concentration (t max), clearance, terminal half-life (t 1/2), volume of distribution at steady state, and mean residence time; compare between patient cohorts PK parameters of carfilzomib 27 mg/m^2 at cycle 1 day 16; evaluate PK parameters for carfilzomib’s major metabolites (PR-389/M14, PR-413/M15, and PR-519/M16) to help characterize metabolism and elimination profile of carfilzomib; and evaluate the safety and tolerability of carfilzomib. Exploratory objectives included evaluation of ORR (defined as PR or better) and clinical benefit rate [CBR; defined as ORR + minimal response (MR)], and estimation of duration of response (DOR) and PFS.
as §1, §2, §3

[4] = cited from earlier work
Description: Carfilzomib, an epoxyketone proteasome inhibitor, is approved in the United States (US), Canada, Australia, European Union (EU), and other jurisdictions for the treatment of relapsed or refractory multiple myeloma. […] Following intravenous (IV) administration, carfilzomib is rapidly and extensively metabolized in patients with multiple myeloma or solid tumors. Similar to the metabolic profile in rats and monkeys, ...

[5] = Plasma pharmacokinetics of carfilzomib and its major metabolites after 30-min IV infusion, normal renal function vs ESRD; assay type: in vivo, human; conditions: for AUC0−inf Geo mean ratio (90% CI), ESRD vs normal renal function / AUC0−last Geo mean ratio (90% CI), ESRD vs normal renal function: ANOVA of ln-transformed data, ESRD test, normal reference
Procedure: as §4, §1, §2
Descriptive statistics were provided for selected demographics, safety, and PK data, with all statistical summaries and analyses performed in SAS^Ⓡ version 9.1 or higher (SAS Institute Inc., Cary, NC). The primary PK analyses and other PK parameters were performed using the PK-evaluable population. Plasma PK parameters of carfilzomib and metabolites were computed in Phoenix WinNonlin^Ⓡ Enterprise version 5.2 or higher. To assess the effect of ESRD relative to normal renal function on PK parameters (AUC0−last and AUC0−inf), an analysis of variance (ANOVA) of the ln-transformed plasma PK parameters was performed, with renal impairment as a fixed effect. […]

[6] = total efficacy-evaluable population

In the case of `CC(C)C[C@H](NC(=O)[C@H](CCc1ccccc1)NC(=O)CN1CCOCC1)C(=O)N[C@@H](Cc1ccccc1)C(=O)N[C@@H](CC(C)C)C(=O)[C@@]1(C)CO1` [carfilzomib], the “treatment discontinuation due to disease progression” value ([1]; ESRD) is reported as 36%, the “patients with treatment-related AEs that led to study discontinuation” value ([1]; in vivo) is reported as “Four” and the “treatment discontinuation due to disease progression” value ([1]; normal renal function) is reported as 20%. The “patients who died during the study” value ([1]; total, none considered related to carfilzomib treatment) was “Five”, the ORR ([2]; phase I trial) was 50% and the ORR ([2]; phase II trial) was 55%. For the same compound, the “patients with a PFS of ≥6 months” value ([3]; ESRD) was 4 of 10, the “Best overall response: Minimal response” value ([3]; ESRD, n = 10) was 0 (0.0) n (%) and the “Best overall response: Complete response” value ([3]; ESRD, n = 10) was 0 (0.0) n (%). The “Best overall response: Not evaluable” value ([3]; ESRD, n = 10) was 0 (0.0) n (%), the “Best overall response: Partial response” value ([3]; ESRD, n = 10) was 5 (50.0) n (%) and the “Best overall response: Progressive disease” value ([3]; ESRD, n = 10) was 2 (20.0) n (%). The “Best overall response: Stable disease” value ([3]; ESRD, n = 10) was 2 (20.0) n (%), the “Best overall response: Stringent complete response” value ([3]; ESRD, n = 10) was 0 (0.0) n (%) and the “Best overall response: Very good partial response” value ([3]; ESRD, n = 10) was 1 (10.0) n (%). For the same compound, the “Clinical benefit rate (95% CI), minimal response or better” value (from here on “Clinical benefit rate (95% CI)”) ([3]; ESRD, n = 10) was 60.0 (26.2–87.8) %, the “Overall response rate (95% CI), partial response or better” value (shortened to “Overall response rate (95% CI)”) ([3]; ESRD, n = 10) was 60.0 (26.2–87.8) % and the “patients with a PFS of ≥6 months” value ([3]; normal renal function) was 6 of 14. The “Best overall response: Minimal response” value ([3]; normal renal function, n = 14) was 1 (7.1) n (%), the “Best overall response: Complete response” value ([3]; normal renal function, n = 14) was 0 (0.0) n (%) and the “Best overall response: Partial response” value ([3]; normal renal function, n = 14) was 3 (21.4) n (%). The “Best overall response: Progressive disease” value ([3]; normal renal function, n = 14) was 2 (14.3) n (%), the “Best overall response: Stable disease” value ([3]; normal renal function, n = 14) was 3 (21.4) n (%) and the “Best overall response: Stringent complete response” value ([3]; normal renal function, n = 14) was 0 (0.0) n (%). The “Best overall response: Very good partial response” value ([3]; normal renal function, n = 14) was 3 (21.4) n (%), the “Clinical benefit rate (95% CI)” value ([3]; normal renal function, n = 14) was 50.0 (23.0–77.0) % and the “Overall response rate (95% CI)” value ([3]; normal renal function, n = 14) was 42.9 (17.7–71.1) %. For the same compound, the “patients with a PFS >12 months” value [3, 6] was 4 patients, the “patients with a PFS of ≥6 months” value [3, 6] was “Ten” and the “Best overall response: Minimal response” value ([3]; total, n = 24) was 1 (4.2) n (%). For the same compound, the “Best overall response: Complete response” value ([3]; total, n = 24) was 0 (0.0) n (%), the “Best overall response: Not evaluable” value ([3]; total, n = 24) was 2 (8.3) n (%) and the “Best overall response: Partial response” value ([3]; total, n = 24) was 8 (33.3) n (%). For the same compound, the “Best overall response: Progressive disease” value ([3]; total, n = 24) was 4 (16.7) n (%), the “Best overall response: Stable disease” value ([3]; total, n = 24) was 5 (20.8) n (%) and the “Best overall response: Stringent complete response” value ([3]; total, n = 24) was 0 (0.0) n (%). The “Best overall response: Very good partial response” value ([3]; total, n = 24) was 4 (16.7) n (%), the “Clinical benefit rate (95% CI)” value ([3]; total, n = 24) was 54.2 (32.8–74.4) % and the “Overall response rate (95% CI)” value ([3]; total, n = 24) was 50.0 (29.1–70.9) %. The half-life ([4]; IV administration at doses from 15 to 56 mg/m^2, patients) was at most 60 min, the “dose excreted via urinary metabolites” value ([4]; within 24 h) was “approximately 25%” and the “urinary and fecal excretion of the parent compound” value ([4]; within 24 h) was 0.3 % of the total dose. The “AUC0−inf Geo mean ratio (90% CI), ESRD vs normal renal function” value ([5]; 27 mg/m^2) was 138.09 (102.77–185.54) %, the “AUC0−last Geo mean ratio (90% CI), ESRD vs normal renal function” value ([5]; 27 mg/m^2) was 139.72 (112.41–173.66) % and the “AUC0−inf Geo mean ratio (90% CI), ESRD vs normal renal function” value ([5]; 56 mg/m^2, cycle 2 day 1) was 133.62 (70.93–251.73) %. The “AUC0−last Geo mean ratio (90% CI), ESRD vs normal renal function” value ([5]; 56 mg/m^2, cycle 2 day 1) was 132.75 (70.60–249.63) %, the “change in mean AUC0−last and C max between 27 and 56 mg/m^2” value ([5]; in vivo) was “dose-dependent increase” and the “concentration decline in the first 15 min following the end of the infusion” value ([5]; in vivo) was “two orders of magnitude”. For the same compound, the “mean terminal t 1/2” value ([5]; in vivo) was 24 to 72 min and the “time of peak concentrations after start of infusion” value ([5]; in vivo, iv) was “approximately 0.5 h”.

Reference: PMC5438822, “Pharmacokinetics and safety of carfilzomib in patients with relapsed multiple myeloma and end-stage renal disease (ESRD): an open-label, single-arm, phase I study” (Cancer Chemotherapy and Pharmacology, 2017)
